Reference: patent US6727264B1 (Synaptic Pharmaceutical Corporation, priority 2001, dated 2004)

Molecular target: rat MCH-1 (Rattus norvegicus, UniProt P97639)
Assay: Radioligand binding assay at cloned rat MCH1 receptor ([3H] Compound A)
Set-up: host or cells: Peak rapid 293 (Peakr293) cells, transient calcium phosphate transfection, membranes
Conditions: cloned rat MCH1 receptor, membranes from Peakr293 cells, 0.08 nM [3H] Compound A; read-out: Ki (nM) rMCH1

Chain of rat MCH-1 (P97639 whole entry): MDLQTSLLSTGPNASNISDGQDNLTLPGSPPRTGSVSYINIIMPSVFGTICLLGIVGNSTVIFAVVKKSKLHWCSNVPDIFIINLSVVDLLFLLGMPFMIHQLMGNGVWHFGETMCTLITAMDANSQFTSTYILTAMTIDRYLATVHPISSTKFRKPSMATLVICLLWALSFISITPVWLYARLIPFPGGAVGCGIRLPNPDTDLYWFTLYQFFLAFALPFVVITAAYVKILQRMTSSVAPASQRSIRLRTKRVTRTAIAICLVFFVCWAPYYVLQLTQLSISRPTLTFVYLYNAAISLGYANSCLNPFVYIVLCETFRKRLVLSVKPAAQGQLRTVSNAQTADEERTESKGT

Structure (SMILES)	Ki [nM]
CC(C)C(=O)Nc1cccc(C2CCN(CCCC(c3ccc(F)cc3)c3ccc(F)cc3)CC2)n1 [Example 265]	13.5
Cc1ccc(C2CCN(Cc3ccc(Oc4ccc(F)c(F)c4)cc3)CC2)cc1NC(=O)C(C)C [Example 269]	27.4
CCn1c2ccccc2c2cc(CN3CCC(c4cc(NC(=O)C(C)C)ccc4C)CC3)ccc21 [Example 270]	3.4
Cc1ccc(C2CCN(CCCC(c3ccc(F)cc3)c3ccc(F)cc3)CC2)cc1NC(=O)C(C)C [Example 271]	40.1
CCn1c2ccccc2c2cc(CN3CCC(c4ccccc4NC(=O)C(C)C)CC3)ccc21 [Example 274]	844
Cc1ccc(NC(=O)C(C)C)cc1C1CCN(CCCC(c2ccc(F)cc2)c2ccc(F)cc2)CC1 [Example 275]	3.1
O=C(Nc1cccc(C2CCN(CC[C@@H](O)c3ccccc3)CC2)c1)C1CC1 [Example 278]	85.8
CC(C)C(=O)Nc1cccc(C2CCN(CCCCCC(O)c3ccccc3)CC2)c1 (stereo not shown) [Example 281]	7.9
Cc1onc(-c2c(Cl)cccc2Cl)c1C(=O)OC(CCCN1CCC(c2cccc(NC(=O)C(C)C)c2)CC1)c1ccccc1 (stereo not shown) [Example 284, 4-{4-[3-(ISOBUTYRYLAMINO)PHENYL]-1-PIPERIDINYL}-1-PHENYLBUTYL 3-(2,6-DICHLOROPHENYL)-5-METHYL-4-ISOXAZOLECARBOXYLATE]	16.3
CC(C)C(=O)Nc1cccc(C2CCN(CCCC(OC(=O)Cc3ccc(F)cc3)c3ccccc3)CC2)c1 (stereo not shown) [Example 285]	10.3
Cc1onc(-c2c(Cl)cccc2Cl)c1C(=O)OCCCN1CCC(c2cccc(NC(=O)C(C)C)c2)CC1 [Example 288, 3-{4-[3-(ISOBUTYRYLAMINO)PHENYL]-1-PIPERIDINYL}PROPYL 3-(2,6-DICHLOROPHENYL)-5-METHYL-4-ISOXAZOLECARBOXYLATE]	30.2
Cc1onc(-c2ccccc2Cl)c1C(=O)OCCCN1CCC(c2cccc(NC(=O)C(C)C)c2)CC1 [Example 289, 3-{4-[3-(ISOBUTYRYLAMINO)PHENYL]-1-PIPERIDINYL}PROPYL 3-(2-CHLOROPHENYL)-5-METHYL-4-ISOXAZOLECARBOXYLATE]	31.8
Cc1onc(-c2c(Cl)cccc2Cl)c1C(=O)O[C@@H](CCN1CCC(c2cccc(NC(=O)C(C)C)c2)CC1)c1ccccc1 [Example 290, (1S)-3-{4-[3-(ISOBUTYRYLAMINO)PHENYL]-1-PIPERIDINYL}-1-PHENYLPROPYL 3-(2,6-DICHLOROPHENYL)-5-METHYL-4-ISOXAZOLECARBOXYLATE]	51.9
Cc1onc(-c2c(F)cccc2Cl)c1C(=O)OCCCCN1CCC(c2cccc(NC(=O)C(C)C)c2)CC1 [Example 291, 4-{4-[3-(ISOBUTYRYLAMINO)PHENYL]-1-PIPERIDINYL}BUTYL 3-(2-CHLORO-6-FLUOROPHENYL)-5-METHYL-4-ISOXAZOLECARBOXYLATE]	24.3
Cc1onc(-c2ccccc2Cl)c1C(=O)OCCCCN1CCC(c2cccc(NC(=O)C(C)C)c2)CC1 [Example 292, 4-{4-[3-(ISOBUTYRYLAMINO)PHENYL]-1-PIPERIDINYL}BUTYL 3-(2-CHLOROPHENYL)-5-METHYL-4-ISOXAZOLECARBOXYLATE]	18.4
Cc1onc(-c2c(F)cccc2Cl)c1C(=O)OC(CCCN1CCC(c2cccc(NC(=O)C(C)C)c2)CC1)c1ccccc1 (stereo not shown) [Example 295, 4-{4-[3-(ISOBUTYRYLAMINO)PHENYL]-1-PIPERIDINYL}-1-PHENYLBUTYL 3-(2-CHLORO-6-FLUOROPHENYL)-5-METHYL-4-ISOXAZOLECARBOXYLATE]	8.7
Cc1onc(-c2c(Cl)cccc2Cl)c1C(=O)OCCCCCCN1CCC(c2cccc(NC(=O)C(C)C)c2)CC1 [Example 297, 6-{4-[3-(ISOBUTYRYLAMINO)PHENYL]-1-PIPERIDINYL}HEXYL 3-(2,6-DICHLOROPHENYL)-5-METHYL-4-ISOXAZOLECARBOXYLATE]	11.9
Cc1onc(-c2ccccc2)c1C(=O)OCCCCCCN1CCC(c2cccc(NC(=O)C(C)C)c2)CC1 [Example 298, 6-{4-[3-(ISOBUTYRYLAMINO)PHENYL]-1-PIPERIDINYL}HEXYL 5-METHYL-3-PHENYL-4-ISOXAZOLECARBOXYLATE]	40.1

Structure (SMILES)	Ki [nM]
CC(C)C(=O)Nc1cccc(C2CCN(CCCCOC(=O)Cc3ccc(F)cc3)CC2)c1 [Example 299]	37.5
Cc1onc(-c2ccccc2Cl)c1C(=O)OC(CCCN1CCC(c2cccc(NC(=O)C(C)C)c2)CC1)c1ccccc1 (stereo not shown) [Example 300, 4-{4-[3-(ISOBUTYRYLAMINO)PHENYL]-1-PIPERIDINYL}-1-PHENYLBUTYL 3-(2-CHLOROPHENYL)-5-METHYL-4-ISOXAZOLECARBOXYLATE]	7.6
CC(C)C(=O)Nc1cccc(C2CCN(CC[C@H](NC(=O)c3cc(Cl)cc(Cl)c3)c3ccccc3)CC2)c1 [Example 306]	168
CC(C)C(=O)Nc1cccc(C2CCN(CC[C@H](NC(=O)c3ccc(-c4ccccc4)cc3)c3ccccc3)CC2)c1 [Example 308]	402
CC(C)C(=O)Nc1cccc(C2CCN(CC[C@H](NC(=O)c3ccccn3)c3ccccc3)CC2)c1 [Example 309]	310
COc1ccccc1C(=O)N[C@@H](CCN1CCC(c2cccc(NC(=O)C(C)C)c2)CC1)c1ccccc1 [Example 310]	152
CC(C)C(=O)Nc1cccc(C2CCN(CC[C@H](NC(=O)c3cccc4ccccc34)c3ccccc3)CC2)c1 [Example 311]	43
CC(C)C(=O)Nc1cccc(C2CCN(CC[C@H](NC(=O)c3ccc(F)cc3F)c3ccccc3)CC2)c1 [Example 312]	61.5
CC(C)C(=O)Nc1cccc(C2CCN(CC[C@H](NC(=O)c3sccc3Cl)c3ccccc3)CC2)c1 [Example 314]	7.6
Cc1nn(C)c2ncc(C(=O)N[C@@H](CCN3CCC(c4cccc(NC(=O)C(C)C)c4)CC3)c3ccccc3)c(Cl)c12 [Example 317]	110
CC(C)C(=O)Nc1cccc(C2CCN(CC[C@H](NC(=O)c3ccc(Oc4cc(Cl)cc(Cl)c4)[nH]3)c3ccccc3)CC2)c1 [Example 318]	251
CC(C)C(=O)Nc1cccc(C2CCN(CC[C@H](NC(=O)c3cccnc3)c3ccccc3)CC2)c1 [Example 319]	89.8
CC(C)C(=O)Nc1cccc(C2CCN(CC[C@H](NC(=O)c3ccc(F)c(F)c3)c3ccccc3)CC2)c1 [Example 320]	10.6
CCCc1nn(-c2ccccc2)cc1C(=O)N[C@@H](CCN1CCC(c2cccc(NC(=O)C(C)C)c2)CC1)c1ccccc1 [Example 321]	50.9
CC(C)C(=O)Nc1cccc(C2CCN(CC[C@H](NC(=O)c3ccc(N(C)C)cc3)c3ccccc3)CC2)c1 [Example 322]	99.9
CC(C)C(=O)Nc1cccc(C2CCN(CC[C@H](NC(=O)c3ccc([N+](=O)[O-])o3)c3ccccc3)CC2)c1 [Example 324]	76.8
Cc1onc(-c2ccccc2)c1C(=O)NCCCN1CCC(c2cccc(NC(=O)C(C)C)c2)CC1 [Example 325]	29.8

More lines, in order of falling Ki, values ahead:

Ki [nM]	Structure (SMILES)
734	CC(C)C(=O)Nc1ccccc1C1CCN(CCCC(c2ccc(F)cc2)c2ccc(F)cc2)CC1 [Example 276]
249	Cc1onc(-c2c(F)cccc2Cl)c1C(=O)N[C@@H](CCN1CCC(c2cccc(NC(=O)C(C)C)c2)CC1)c1ccccc1 [Example 313]
196	CC(=O)c1cccc(O[C@@H](CCN2CCC(c3ccc(C)c(NC(=O)C(C)C)c3)CC2)c2ccccc2)c1 [Example 273]
177	CC(C)C(=O)Nc1cccc(C2CCN(CC[C@H](NC(=O)c3cccc(Cl)c3)c3ccccc3)CC2)c1 [Example 305]
118	CC(C)C(=O)Nc1ccc(OC(F)(F)F)cc1C1CCN(CCCC(c2ccc(F)cc2)c2ccc(F)cc2)CC1 [Example 277]
97.4	CCSc1ncccc1C(=O)N[C@@H](CCN1CCC(c2cccc(NC(=O)C(C)C)c2)CC1)c1ccccc1 [Example 307]
74.5	CC(C)C(=O)Nc1cccc(C2CCN(CCCC(O)c3ccccc3)CC2)c1 (stereo not shown) [Example 279]
67.8	CC(C)C(=O)Nc1cccc(C2CCN(CCCOC(=O)Cc3ccc(F)cc3)CC2)c1 [Example 286]
39.9	Cc1onc(-c2ccccc2)c1C(=O)OCCCN1CCC(c2cccc(NC(=O)C(C)C)c2)CC1 [Example 293, 3-{4-[3-(ISOBUTYRYLAMINO)PHENYL]-1-PIPERIDINYL}PROPYL 5-METHYL-3-PHENYL-4-ISOXAZOLECARBOXYLATE]
37	CC(C)C(=O)Nc1cccc(C2CCN(CC[C@H](NC(=O)c3cccs3)c3ccccc3)CC2)c1 [Example 323]
34.3	Cc1onc(-c2c(F)cccc2Cl)c1C(=O)OCCCN1CCC(c2cccc(NC(=O)C(C)C)c2)CC1 [Example 287, 3-{4-[3-(ISOBUTYRYLAMINO)PHENYL]-1-PIPERIDINYL}PROPYL 3-(2-CHLORO-6-FLUOROPHENYL)-5-METHYL-4-ISOXAZOLECARBOXYLATE]
27.6	CC(C)C(=O)Nc1cccc(C2CCN(CCCCC(O)c3ccccc3)CC2)c1 (stereo not shown) [Example 280]
23.5	CC(C)C(=O)Nc1cccc(C2CCN(CCCCCCC(O)c3ccccc3)CC2)c1 (stereo not shown) [Example 282]
20.3	CCn1c2ccccc2c2cc(CN3CCC(c4ccc(C)c(NC(=O)C(C)C)c4)CC3)ccc21 [Example 268]
20	Cc1onc(-c2ccccc2)c1C(=O)OCCCCN1CCC(c2cccc(NC(=O)C(C)C)c2)CC1 [Example 296, 4-{4-[3-(ISOBUTYRYLAMINO)PHENYL]-1-PIPERIDINYL}BUTYL 5-METHYL-3-PHENYL-4-ISOXAZOLECARBOXYLATE]
15.8	Cc1onc(-c2c(Cl)cccc2Cl)c1C(=O)OCCCCN1CCC(c2cccc(NC(=O)C(C)C)c2)CC1 [Example 294, 4-{4-[3-(ISOBUTYRYLAMINO)PHENYL]-1-PIPERIDINYL}BUTYL 3-(2,6-DICHLOROPHENYL)-5-METHYL-4-ISOXAZOLECARBOXYLATE]
11.4	CC(C)C(=O)Nc1cccc(C2CCN(CC[C@H](NC(=O)c3cccnc3Oc3ccccc3)c3ccccc3)CC2)c1 [Example 315]
8.3	CCCc1nn(-c2ccc(Cl)cc2)cc1C(=O)N[C@@H](CCN1CCC(c2cccc(NC(=O)C(C)C)c2)CC1)c1ccccc1 [Example 316]
6.4	CC(C)C(=O)Nc1cccc(C2CCN(Cc3ccc(Oc4ccc(F)c(F)c4)cc3)CC2)n1 [Example 266]
4	CC(C)C(=O)Nc1cccc(C2CCN(CC[C@H](NC(=O)C(c3ccccc3)c3ccccc3)c3ccccc3)CC2)c1 [Example 304]
